Where two headings read alike, the source gives them in different places.

For assay [1], the target named is T1, ligand binding domain of ERRγ (Homo sapiens, UniProt P62508).
T1 construct: 6His; made in house; host or cells: E. coli BL21(DE3)
T1 sequence (P62508 229-458): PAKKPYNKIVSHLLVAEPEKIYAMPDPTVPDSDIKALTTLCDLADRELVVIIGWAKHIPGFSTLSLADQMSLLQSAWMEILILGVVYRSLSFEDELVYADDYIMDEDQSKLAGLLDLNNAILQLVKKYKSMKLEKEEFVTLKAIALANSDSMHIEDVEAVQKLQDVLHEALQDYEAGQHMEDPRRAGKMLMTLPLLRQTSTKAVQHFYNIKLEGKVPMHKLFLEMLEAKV
As to the kind of experiment: ThermoFluor thermal shift assay, ERRγ ligand binding domain. The settings on record: for ΔTm, thermal stabilization of ERRγ / ΔTm at 100 µM: 100 μM test compound, 0.1 mg/mL protein, 25 mM HEPES pH 8.0, Tm free protein 49.6 °C; for Kd: read-out: Estimated dissociation constant, ERRγ; for ΔTm at 100 µM: read-out: ΔTm, thermal stabilization of ERRγ. As for the experimental part:
The vector was in E. coli BL21(DE3) and cultured in Minimal media (M9) at 37° C. to an OD595 0.6-0.8, followed by induction at 15° C. with 0.4 mM IPTG for 20 hours. The next day, the culture was harvested and lysed in buffer A (Buffer A: 20 mM Tris-HCl, pH 7.5, 0.4 M NaCl and 5 mM Imidazole) using an Emulsiflex-C5 french press (Avestin). Lysates were spun at 40,000×g for 45 minutes to remove insoluble material. The clarified lysate was applied on a Ni-NTA column and eluted with a linear gradient of imidazole. The protein was further purified by applying the eluent on a Superdex 200 HR 10/30 column (Amersham Pharmacia Biotech) equilibrated with Buffer B (Buffer B: 20 mM Tris-HCl pH 7.5, 0.2M NaCl, 1 mM EDTA and 1 mM DTT). […] Fractions were pulled and concentrated to 4 mg/ml and frozen in liquid nitrogen and stored at −80° C.
The ligand binding domain of ERRγ was screened against a library of known estrogen activators and a generic drug library using ThermoFluor®. ThermoFluor® is a miniaturized thermal shift assay, that has been developed for HTS applications; as a secondary assay for confirmation and characterization of hits; and as a functional assay to characterize orphan proteins. ThermoFluor® exploits the well-described phenomenon of ligand induced stabilization of macromolecules. Ligand binding energy adds directly to the ground state energy of a macromolecule and results in increased thermal stability. The degree of stabilization is proportional to the binding affinity of the ligand for the macromolecule.
Assay plates were prepared by dispensing 2 μL of a protein-dye solution and 2 μL of the test compound in a 384-well plate. […] Finally 1 μL of mineral oil was dispensed on top to prevent evaporation during the high throughput screen (HTS). ThermoFluor® is an HTS assay that measures protein unfolding based on fluorescence detection of the denatured form of the protein. The reporter for the protein unfolding event is the environmentally sensitive dye ANS that is incorporated in the screening buffer. During a typical experiment the 384-well plate is heated at a ramping rate of 1° C./min and the thermal unfolding of the protein is monitored at 1° C. intervals by measuring fluorescence changes detected through a CCD camera. Captured images are integrated and a melting curve is generated that relates fluorescence to fraction of unfolded protein as a function of temperature. […] Hits were identified from the screen by measuring an increase in the melting temperature of the protein.
In order to estimate binding affinities, it was taken into account that the oligomeric state of ERRγ which is a dimer (N2), and that of a single ligand (Lf) can interact per monomer subunit with equal affinity. The melting curve for such a system is described by the following three equilibria:
To compare dissociation constants at a common reference temperature, Tref, the following equation was used: […]
In the thermodynamic treatment of the data the following assumptions were made: i) the small ligand interacts only with the folded state of the protein, ii) the reactions are reversible; iii) the unfolding protein reaction is a two-state process and iv) ideal dilute solutions are being used (specific activity for protein and ligands is equal to 1).

The next assay deals with T2, ERα (Homo sapiens, UniProt P03372).
T2 sequence (P03372 1-595): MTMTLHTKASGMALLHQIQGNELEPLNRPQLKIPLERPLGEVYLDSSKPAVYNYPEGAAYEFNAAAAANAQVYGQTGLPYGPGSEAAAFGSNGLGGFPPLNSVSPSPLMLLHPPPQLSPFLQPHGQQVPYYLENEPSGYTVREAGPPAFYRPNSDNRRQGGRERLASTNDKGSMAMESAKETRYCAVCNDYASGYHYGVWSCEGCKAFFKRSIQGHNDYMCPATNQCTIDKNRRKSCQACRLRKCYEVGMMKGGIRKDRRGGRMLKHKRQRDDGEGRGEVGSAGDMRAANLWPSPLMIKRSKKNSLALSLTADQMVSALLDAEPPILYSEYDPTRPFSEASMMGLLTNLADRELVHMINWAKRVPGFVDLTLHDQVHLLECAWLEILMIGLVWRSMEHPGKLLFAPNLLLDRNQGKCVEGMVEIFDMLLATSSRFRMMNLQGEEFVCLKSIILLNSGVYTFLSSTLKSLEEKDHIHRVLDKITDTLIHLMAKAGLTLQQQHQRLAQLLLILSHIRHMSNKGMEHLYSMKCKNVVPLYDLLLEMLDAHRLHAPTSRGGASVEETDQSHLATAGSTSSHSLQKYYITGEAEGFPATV
The assay can be described thus: ThermoFluor thermal shift assay, ERα. The assay is classed as binding. For orientation: In DSF a fluorescence change marks the thermal transition of the protein.

The target of another assay is T3, ERRβ (Homo sapiens, UniProt O95718).
T3 sequence (O95718 208-432 limits assumed): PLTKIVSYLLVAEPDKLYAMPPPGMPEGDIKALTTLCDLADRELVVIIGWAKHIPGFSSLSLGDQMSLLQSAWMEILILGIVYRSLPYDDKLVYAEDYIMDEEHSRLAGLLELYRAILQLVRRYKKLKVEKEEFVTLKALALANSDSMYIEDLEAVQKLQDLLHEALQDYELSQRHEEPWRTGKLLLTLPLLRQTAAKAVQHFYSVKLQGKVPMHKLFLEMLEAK
The assay can be described thus: ThermoFluor thermal shift assay, ERRβ. The assay is classed as binding. The settings on record: for ΔTm, thermal stabilization of ERRβ / ΔTm at 100 µM: 100 μM test compound, 0.1 mg/mL protein, 25 mM HEPES pH 8.0, Tm free protein 47.5 °C; for Kd: read-out: Estimated dissociation constant, ERRβ; for ΔTm at 100 µM: read-out: ΔTm, thermal stabilization of ERRβ.

A further assay concerns the target ERβ (Homo sapiens, UniProt Q92731). As to the kind of experiment: ThermoFluor thermal shift assay, ERβ. The format is binding. The settings on record: for Kd: calculated at reference temperature 25 °C from ΔTm of Table II, ΔHu 122 kcal/mol, read-out: Estimated dissociation constant, ERγ.
In another assay the target is T4, ERRα (Homo sapiens, UniProt P11474).
T4 sequence (P11474 193-421 limits assumed): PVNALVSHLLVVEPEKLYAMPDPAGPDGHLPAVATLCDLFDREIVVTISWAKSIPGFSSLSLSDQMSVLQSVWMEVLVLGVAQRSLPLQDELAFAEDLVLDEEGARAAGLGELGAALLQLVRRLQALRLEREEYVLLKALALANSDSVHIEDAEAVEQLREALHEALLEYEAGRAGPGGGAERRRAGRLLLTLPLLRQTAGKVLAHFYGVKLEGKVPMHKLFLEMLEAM
As to the kind of experiment: ThermoFluor thermal shift assay, ERRα. The format is binding. The settings on record: for ΔTm, thermal stabilization of ERRα / ΔTm at 100 µM: 100 μM test compound, 0.1 mg/mL protein, 25 mM HEPES pH 8.0, 25 μM ANS, 2% DMSO, Tm free protein 54.4 °C; for ΔTm at 100 µM: read-out: ΔTm, thermal stabilization of ERRα.

Where [2] appears, read: 100 μM test compound, 0.1 mg/mL protein, 25 mM HEPES pH 8.0, Tm free protein 39.1 °C.
Setting [3] is: calculated at reference temperature 25 °C from ΔTm of Table II, ΔHu 112 kcal/mol, read-out: Estimated dissociation constant, ERα.
The mark [4] stands for this setting: 100 μM test compound, 0.1 mg/mL protein, 25 mM HEPES pH 8.0, Tm free protein 41.1 °C.
The mark [5] stands for this setting: 100 μM test compound, 0.1 mg/mL protein, 25 mM HEPES pH 8.0, Tm free protein 41.1 °C, read-out: ΔTm, thermal stabilization of ERβ.
Setting [6] is: 100 μM test compound, 0.1 mg/mL protein, 25 mM HEPES pH 8.0, Tm free protein 39.1 °C, read-out: ΔTm, thermal stabilization of ERα.

Chain of ERβ (Q92731 whole entry, species assumed): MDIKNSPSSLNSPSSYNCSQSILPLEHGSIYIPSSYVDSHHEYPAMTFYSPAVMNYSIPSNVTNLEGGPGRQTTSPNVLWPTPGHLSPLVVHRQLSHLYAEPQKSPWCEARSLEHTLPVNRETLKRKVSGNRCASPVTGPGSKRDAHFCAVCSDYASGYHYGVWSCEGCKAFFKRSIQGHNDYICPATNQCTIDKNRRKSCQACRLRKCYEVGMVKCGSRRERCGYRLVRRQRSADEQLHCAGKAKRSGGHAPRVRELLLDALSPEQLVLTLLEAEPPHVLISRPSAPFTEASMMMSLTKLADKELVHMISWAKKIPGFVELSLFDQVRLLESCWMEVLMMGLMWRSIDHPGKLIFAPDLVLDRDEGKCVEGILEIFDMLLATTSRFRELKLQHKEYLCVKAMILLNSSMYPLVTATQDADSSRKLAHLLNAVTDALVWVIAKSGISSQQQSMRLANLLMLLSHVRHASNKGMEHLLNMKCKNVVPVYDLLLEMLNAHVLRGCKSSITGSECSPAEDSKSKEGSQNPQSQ

In the case of `CCCc1c(-c2ccc(O)cc2)nn(-c2ccc(O)cc2)c1-c1ccc(O)cc1` [PPT], in assay [1], the “ΔTm, thermal stabilization of ERRγ” value is −1.8 °C. Further, on ERα (setting [2]), the “ΔTm, thermal stabilization of ERα” value turned out to be 11.7 °C. For the same compound, the Kd is 38.7 nM at ERα (setting [3]) and 58.3 nM at ERβ. Also, the “ΔTm, thermal stabilization of ERRβ” value at ERRβ was −3.5 °C. Further, the “ΔTm, thermal stabilization of ERβ” value on ERβ (setting [4]) was 9.5 °C. Moreover, at ERRα, the “ΔTm, thermal stabilization of ERRα” value was −2.3 °C.

For orientation: ΔTm means the shift of the melting midpoint relative to a reference. As to `O=C(c1ccc(OCCN2CCCCC2)cc1)c1c(-c2ccc(O)cc2)sc2cc(O)ccc12` [raloxifene], at ERβ (setting [5]), the thermal shift (ΔTm) at 100 µM amounted to 11.9 °C.

Regarding `CCN(CC)CCOc1ccc(C(=C(Cl)c2ccccc2)c2ccccc2)cc1` [clomiphene], the ΔTm at 100 µM on ERβ (setting [5]) is 9.7 °C. Moreover, the Kd on ERβ is 52.1 nM.

Turning to `C[C@]12CC[C@@H]3c4ccc(O)cc4CC[C@H]3[C@@H]1CC[C@H]2O` [17-α-estradiol], in assay [1], the “ΔTm, thermal stabilization of ERRγ” value is 1.3 °C. On ERRβ, the “ΔTm, thermal stabilization of ERRβ” value amounted to 0.0 °C.

As for `C[C@]12CC[C@@H]3c4ccc(O)cc4CC[C@H]3[C@@H]1CC[C@@H]2O` [17-β-estradiol], the “ΔTm, thermal stabilization of ERRγ” value in assay [1] came out at 0.6 °C. The “ΔTm, thermal stabilization of ERRβ” value at ERRβ was −0.1 °C.

With 4-bromocresol, in assay [1], the “ΔTm, thermal stabilization of ERRγ” value was 4.3 °C. Moreover, the Kd in assay [1] (calculated at reference temperature 25 °C from ΔTm of Table II, ΔHu 165 kcal/mol) is 633 nM; on ERRβ (calculated at reference temperature 25 °C from ΔTm of Table II, ΔHu 155 kcal/mol) it was 17200 nM. Moreover, the “ΔTm, thermal stabilization of ERRβ” value at ERRβ worked out at 0.5 °C. Moreover, the “ΔTm, thermal stabilization of ERRα” value on ERRα came to 0.1 °C.

Regarding `O=c1c(-c2ccc(O)cc2)coc2cc(O)ccc12` [Daidzein], the ΔTm at 100 µM in assay [1] was -0.1 °C; on ERα (setting [6]), 4.1 °C; at ERRβ, 0.3 °C; on ERβ (pH 8, read-out: ΔTm, thermal stabilization of ERβ), 8.9 °C; on ERRα, 0 °C. In addition, the “Interaction with / stabilization of ERRγ, in words” value in assay [1] (ThermoFluor) is “did not interact”. The “Interaction with / stabilization of ERRβ, in words” value at ERRβ (ThermoFluor) is listed as “did not interact”. The “Interaction with / stabilization of ERRα, in words” value on ERRα (ThermoFluor) is reported as “did not interact”.

In the case of `COc1cc2c(cc1O)CC[C@@H]1[C@@H]2CC[C@]2(C)[C@@H](O)CC[C@@H]12` [2-methoxy-estradiol], the “ΔTm, thermal stabilization of ERRγ” value in assay [1] stood at 0.0 °C. The “ΔTm, thermal stabilization of ERα” value at ERα (setting [2]) came to 3.5 °C. The values for the Kd at ERα (setting [3]) and on ERβ were 2660 nM and 2310 nM, respectively. Besides, the “ΔTm, thermal stabilization of ERRβ” value at ERRβ is −0.1 °C. At ERβ (setting [4]), the “ΔTm, thermal stabilization of ERβ” value came to 2.9 °C. The “ΔTm, thermal stabilization of ERRα” value at ERRα is 0.1 °C.

With `Oc1ccc(/C=C/c2cc(O)cc(O)c2)cc1` [resvesterol], the “ΔTm, thermal stabilization of ERRγ” value in assay [1] worked out at 0.4 °C. In addition, the “ΔTm, thermal stabilization of ERRβ” value at ERRβ stood at 0.2 °C. Moreover, the “ΔTm, thermal stabilization of ERRα” value at ERRα came out at 0.0 °C.

On to `C[C@]12CC[C@@H]3c4ccc(O)cc4C[C@@H](CCCCCCCCC[S+]([O-])CCCC(F)(F)C(F)(F)F)[C@H]3[C@@H]1CC[C@@H]2O` (stereo partly drawn) [ICI-182780], for which the ΔTm at 100 µM in assay [1] was 0 °C; on ERα (setting [6]), 13.9 °C; on ERRβ, 0 °C; at ERβ (setting [5]), 16.7 °C; on ERRα, 0 °C.

For the compound `C[C@]12CC[C@H]3[C@@H](CCC4=C[C@H](O)CC[C@@H]43)[C@@H]1CC[C@@H]2O` [4-estrene-3-α-17-β-diol], the ΔTm at 100 µM in assay [1] is -0.1 °C; at ERα (pH 8, read-out: ΔTm, thermal stabilization of ERα) it was 4.9 °C; at ERRβ, -0.1 °C; at ERβ (setting [5]), 7.7 °C; on ERRα, 0 °C. In addition, the figures for the Kd on ERα and at ERβ were 1270 nM and 157 nM, respectively.

For `CCc1cc(O)ccc1Cl` [4chloro-3ethyl-phenol], the ΔTm at 100 µM turned out to be 4.1 °C in assay [1], 0.4 °C at ERRβ and 0.2 °C on ERRα. Besides, the Kd in assay [1] was 722 nM; on ERRβ it was 18000 nM.

As for `N#CC(Cc1ccc(O)cc1)c1ccc(O)cc1` (stereo not drawn) [DPN], the “ΔTm, thermal stabilization of ERRγ” value in assay [1] turned out to be 0.3 °C. In addition, the “ΔTm, thermal stabilization of ERRβ” value on ERRβ stood at 0.2 °C. Besides, the “ΔTm, thermal stabilization of ERRα” value on ERRα is −0.2 °C.
